In PMC5778071, “Development of matrix metalloproteinase-targeted probes for lung inflammation detection with positron emission tomography” (Scientific Reports, 2018):
pIC50: −log10 of the molar value. Where “and” joins values, the source holds several entries; their conditions need not be identical. Equal entries are not always repeated.

How the values were obtained:
[1] = Ex vivo autoradiography of lung sections; format: in vivo, BALB/c mice; conditions: after PET scan; for Radioactivity accumulation in lung sections (autoradiography): 20 μm sections
Experimental: Following the PET experiments, the frozen lungs were cut into 20 μm thick sections with a cryomicrotome (Cryotome FSE; ThermoFisher Scientific, Tokyo, Japan). Lung sections at intervals of 100 μm (n = 2 each, 9 positions) were exposed to imaging plates (BAS-SR; GE Healthcare Japan, Tokyo, Japan) for 3 h. To quantify the signals, various concentrations of the administrated ^18F-IPFP dilutions were also plotted and exposed to imaging plates. Autoradiograms were obtained with a Typhoon FLA 7000 scanner, (GE Healthcare Japan), and the resulting images were analyzed by ImageQuant TL (GE Healthcare Japan). Radioactivities per area were determined by image analysis of the resulting autoradiograms and expressed as percent injected dose (%ID) per section calculated using the quantitation curve obtained by the ^18F-IPFP dilutions.

[2] = In vivo biodistribution study in Air and CS (COPD model) mice; parameters: species or system BALB/c mice; conditions: for Tissue radioactivity, Blood / Tissue radioactivity, Bone / Tissue radioactivity, Heart / Tissue radioactivity, Intestine / Tissue radioactivity, Kidney / Tissue radioactivity, Liver / Tissue radioactivity, Lung / Tissue radioactivity, Muscle / Tissue radioactivity, Pancreas / Tissue radioactivity, Spleen / Tissue radioactivity, Stomach: i.v.
Experimental: The animals were randomly divided into two groups, control air-exposed (Air, n = 18) and cigarette smoke exposed (CS, n = 18) groups. The mice in the CS group were exposed to cigarette smoke for 10 min inside an acrylic box twice a day, 4–5 times a week, for 4 months using 1 cigarette (Peace, Japan Tobacco Inc., Tokyo, Japan) for every exposure following a previous report with slight modifications. The mice in the Air group were identically exposed to air without CS in a similar box. After the CS treatment, the animals were kept under normal warm and clean environmental conditions to allow for recovery and then housed as described above.
Animals from each study group were randomly divided into 3 groups (n = 3 each) for each time point studied. Mice that were intravenously administered ^18F-IPFP (185 kBq/100 μl saline containing 0.1% tween 80) were sacrificed by cervical dislocation at 20, 45, and 90 min, and 5, 45, and 90 min after administration for the Air and CS groups, respectively. Blood was immediately collected from the heart cavity. Tissues were excised, weighed, and counted for radioactivity with an NaI well-type scintillation counter (1470 Wizard; PerkinElmer, Kanagawa, Japan).

[3] = In vivo PET imaging of lung region; parameters: species or system BALB/c mice; conditions: 50–60 min after injection
Experimental: PET data were acquired in list mode using a microPET Focus120 apparatus (Siemens), with a spatial resolution of 1.2 mm at the center of the field of view[24]. Animals (n = 2 per group) were placed in a prone position under 1–2% isoflurane anesthesia on a heating pad to maintain body temperature at 36–37 °C during the PET experiments. A transmission […] scan using an external ^68Ge source was acquired before the PET scan for attenuation correction. At the start of the PET scan, intravenous administration of ^18F-IPFP (4.7–8.1 MBq/100 μl saline containing 0.1% tween 80) was initiated for 15 sec followed by a 50–100 μl saline flush for 15 sec. The scan duration was 60 min. Following the PET scan, mice were immediately euthanized with an anesthesia overdose, followed by extraction of the lungs and heart. Extracted organs were placed on the PET bed and scanned for another 10 min. Thereafter, the lungs were frozen for ex vivo autoradiography analysis. Emission images were reconstructed using Fourier rebinning[25] and a maximum likelihood expectation maximization algorithm with a 128 × 128 × 95 matrix size, and a 0.43 × 0.43 × 0.80 mm^3 voxel size. The uptake of the tracer in the regions of interest was converted to the standardized uptake values (SUVs).

MMP-9 = tested on: MMP-9; parameters: method as in PMID 25438884; conditions: fluorogenic inhibition assay; cited from earlier work
MMP-12 = tested on: MMP-12; parameters: method as in PMID 25438884; conditions: fluorogenic inhibition assay; cited from earlier work
[4] = Air group, 20 min after injection
[5] = Air group, 45 min after injection
[6] = Air group, 90 min after injection
[7] = CS group, 5 min after injection
[8] = CS group, 45 min after injection
[9] = CS group, 90 min after injection

CC(C)C[C@H](CC(=O)NO)C(=O)N[C@@H](Cc1ccc(I)cc1)C(=O)N[C@@H](CCCCNC(=O)C(C)[18F])C(N)=O (stereo partly drawn) [^18F-IPFP]
Radioactivity accumulation in lung sections (autoradiography) ([1]; Air group): 16.2 ± 2.0 × 10^−4 %ID/section | Radioactivity accumulation in lung sections (autoradiography) ([1]; CS group): 30.0 ± 3.0 × 10^−4 %ID/section | Radioactivity accumulation in lung sections, CS group vs Air group (autoradiography) [1]: 2 fold | Radioactivity accumulation in the lungs, CS group compared with Air group ([2]; 90 min after administration): > 4 fold and 4 fold | Tissue radioactivity, Blood [2, 4]: 0.5 ± 0.1 %ID/g | Tissue radioactivity, Bone [2, 4]: 0.4 ± 0.0 %ID/g | Tissue radioactivity, Heart [2, 4]: 0.5 ± 0.1 %ID/g | Tissue radioactivity, Intestine [2, 4]: 10.7 ± 2.2 %ID/g | Tissue radioactivity, Kidney [2, 4]: 37.6 ± 6.4 %ID/g | Tissue radioactivity, Liver [2, 4]: 22.6 ± 0.7 %ID/g | Tissue radioactivity, Lung [2, 4]: 5.3 ± 0.6 %ID/g | Tissue radioactivity, Muscle [2, 4]: 0.3 ± 0.1 %ID/g | Tissue radioactivity, Pancreas [2, 4]: 5.4 ± 0.7 %ID/g | Tissue radioactivity, Spleen [2, 4]: 0.9 ± 0.1 %ID/g | Tissue radioactivity, Stomach [2, 4]: 2.8 ± 2.1 % injected dose | Tissue radioactivity, Blood [2, 5]: 0.6 ± 0.0 %ID/g | Tissue radioactivity, Bone [2, 5]: 0.5 ± 0.1 %ID/g | Tissue radioactivity, Heart [2, 5]: 0.5 ± 0.0 %ID/g | Tissue radioactivity, Intestine [2, 5]: 16.9 ± 3.0 %ID/g | Tissue radioactivity, Kidney [2, 5]: 38.8 ± 4.2 %ID/g | Tissue radioactivity, Liver [2, 5]: 15.2 ± 1.6 %ID/g | Tissue radioactivity, Lung [2, 5]: 2.4 ± 0.4 %ID/g | Tissue radioactivity, Muscle [2, 5]: 0.3 ± 0.2 %ID/g | Tissue radioactivity, Pancreas [2, 5]: 4.5 ± 0.8 %ID/g | Tissue radioactivity, Spleen [2, 5]: 0.8 ± 0.1 %ID/g | Tissue radioactivity, Stomach [2, 5]: 1.5 ± 1.0 % injected dose | Tissue radioactivity, Blood [2, 6]: 0.7 ± 0.1 %ID/g | Tissue radioactivity, Bone [2, 6]: 0.7 ± 0.2 %ID/g | Tissue radioactivity, Heart [2, 6]: 0.5 ± 0.1 %ID/g | Tissue radioactivity, Intestine [2, 6]: 18.4 ± 2.1 %ID/g | Tissue radioactivity, Kidney [2, 6]: 34.6 ± 3.3 %ID/g | Tissue radioactivity, Liver [2, 6]: 11.2 ± 1.1 %ID/g | Tissue radioactivity, Lung [2, 6]: 1.3 ± 0.1 %ID/g | Tissue radioactivity, Muscle [2, 6]: 0.4 ± 0.1 %ID/g | Tissue radioactivity, Pancreas [2, 6]: 3.9 ± 0.6 %ID/g | Tissue radioactivity, Spleen [2, 6]: 0.8 ± 0.2 %ID/g | Tissue radioactivity, Stomach [2, 6]: 0.5 ± 0.2 % injected dose | Radioactivity accumulation in the lungs relative to heart, muscle and blood ([2]; COPD mice, 90 min after administration): 10 fold | Tissue radioactivity, Blood [2, 7]: 0.8 ± 0.1 %ID/g | Tissue radioactivity, Bone [2, 7]: 1.0 ± 0.3 %ID/g | Tissue radioactivity, Heart [2, 7]: 0.9 ± 0.3 %ID/g | Tissue radioactivity, Intestine [2, 7]: 6.0 ± 0.6 %ID/g | Tissue radioactivity, Kidney [2, 7]: 34.1 ± 3.6 %ID/g | Tissue radioactivity, Liver [2, 7]: 30.8 ± 4.6 %ID/g | Tissue radioactivity, Lung [2, 7]: 9.4 ± 1.9 %ID/g | Tissue radioactivity, Muscle [2, 7]: 0.6 ± 0.1 %ID/g | Tissue radioactivity, Pancreas [2, 7]: 6.2 ± 0.3 %ID/g | Tissue radioactivity, Spleen [2, 7]: 2.5 ± 0.4 %ID/g | Tissue radioactivity, Stomach [2, 7]: 1.0 ± 0.4 % injected dose | Radioactivity accumulation in the lungs relative to surrounding tissues (heart, blood, muscle) [2, 8]: > 10 fold | Tissue radioactivity, Blood [2, 8]: 0.5 ± 0.1 %ID/g | Tissue radioactivity, Bone [2, 8]: 0.6 ± 0.1 %ID/g | Tissue radioactivity, Heart [2, 8]: 0.5 ± 0.1 %ID/g | Tissue radioactivity, Intestine [2, 8]: 13.1 ± 0.3 %ID/g | Tissue radioactivity, Kidney [2, 8]: 31.7 ± 2.2 %ID/g | Tissue radioactivity, Liver [2, 8]: 17.4 ± 4.1 %ID/g | Tissue radioactivity, Lung [2, 8]: 5.6 ± 0.5 %ID/g | Tissue radioactivity, Muscle [2, 8]: 0.3 ± 0.1 %ID/g | Tissue radioactivity, Pancreas [2, 8]: 4.8 ± 0.6 %ID/g | Tissue radioactivity, Spleen [2, 8]: 1.2 ± 0.2 %ID/g | Tissue radioactivity, Stomach [2, 8]: 2.2 ± 0.2 % injected dose | Tissue radioactivity, Blood [2, 9]: 0.6 ± 0.1 %ID/g | Tissue radioactivity, Bone [2, 9]: 0.8 ± 0.2 %ID/g | Tissue radioactivity, Heart [2, 9]: 0.6 ± 0.1 %ID/g | Tissue radioactivity, Intestine [2, 9]: 15.7 ± 0.9 %ID/g | Tissue radioactivity, Kidney [2, 9]: 25.4 ± 5.2 %ID/g | Tissue radioactivity, Liver [2, 9]: 12.0 ± 1.0 %ID/g | Tissue radioactivity, Lung [2, 9]: 6.3 ± 0.3 %ID/g | Tissue radioactivity, Muscle [2, 9]: 0.3 ± 0.1 %ID/g | Tissue radioactivity, Pancreas [2, 9]: 3.9 ± 0.4 %ID/g | Tissue radioactivity, Spleen [2, 9]: 1.3 ± 0.2 %ID/g | Tissue radioactivity, Stomach [2, 9]: 1.4 ± 0.5 % injected dose | accumulation ratio of lung to liver ([2]; mouse, in vivo): > 0.5 | Radioactivity uptake in the bone ([2]; over the time window, suggests absence of defluorination): low | SUV in the lung regions (PET) ([3]; Air group): 0.17 | SUV in the lung regions (PET) ([3]; CS group): 0.22

CC(C)C[C@H](CC(=O)NO)C(=O)N[C@@H](Cc1ccccc1)C(=O)N[C@@H](CCCCNC(=O)c1ccc(F)cc1)C(N)=O [^18F-FB-ML5]
pIC50 (MMP-9): 7.50 | pIC50 (MMP-12): 6.86
